Measurements taken from patent publication US20250346569A1, “NEW DERIVATIVES FOR TREATING TRPM3 MEDIATED DISORDERS” (Katholieke Universiteit Leuven, priority 2022, published 2025).

Biological target: T1, mouse TRPM3α2 (mTRPM3) ion channel (Mus musculus, UniProt J9SQF3)
T1 construct: expressed in transfected cells; host or cells: flip-in HEK293
Experiment: Monitoring the TRPM3 ion channel driven Ca2+ uptake (Fluo-4 AM assay)
Type: cell-based
Settings: TRPM3 overexpressing flip-in HEK293 cells, channel stimulated with Pregnenolone sulfate (PS) 50 μM
How it was run: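 Flp-In HEK293 cells overexpressing mTRPM3α2, loaded with Fluo-4 AM and added to wells holding compound plus 50 μM pregnenolone sulfate in Ca2+-containing Krebs buffer. Fluorescence (ex 485/em 535) read right after cell addition. Inhibition normalised to vehicle and positive-control inhibitor; IC50 derived.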

T1 sequence (J9SQF3 1-1709 isoform J9SQF3-12): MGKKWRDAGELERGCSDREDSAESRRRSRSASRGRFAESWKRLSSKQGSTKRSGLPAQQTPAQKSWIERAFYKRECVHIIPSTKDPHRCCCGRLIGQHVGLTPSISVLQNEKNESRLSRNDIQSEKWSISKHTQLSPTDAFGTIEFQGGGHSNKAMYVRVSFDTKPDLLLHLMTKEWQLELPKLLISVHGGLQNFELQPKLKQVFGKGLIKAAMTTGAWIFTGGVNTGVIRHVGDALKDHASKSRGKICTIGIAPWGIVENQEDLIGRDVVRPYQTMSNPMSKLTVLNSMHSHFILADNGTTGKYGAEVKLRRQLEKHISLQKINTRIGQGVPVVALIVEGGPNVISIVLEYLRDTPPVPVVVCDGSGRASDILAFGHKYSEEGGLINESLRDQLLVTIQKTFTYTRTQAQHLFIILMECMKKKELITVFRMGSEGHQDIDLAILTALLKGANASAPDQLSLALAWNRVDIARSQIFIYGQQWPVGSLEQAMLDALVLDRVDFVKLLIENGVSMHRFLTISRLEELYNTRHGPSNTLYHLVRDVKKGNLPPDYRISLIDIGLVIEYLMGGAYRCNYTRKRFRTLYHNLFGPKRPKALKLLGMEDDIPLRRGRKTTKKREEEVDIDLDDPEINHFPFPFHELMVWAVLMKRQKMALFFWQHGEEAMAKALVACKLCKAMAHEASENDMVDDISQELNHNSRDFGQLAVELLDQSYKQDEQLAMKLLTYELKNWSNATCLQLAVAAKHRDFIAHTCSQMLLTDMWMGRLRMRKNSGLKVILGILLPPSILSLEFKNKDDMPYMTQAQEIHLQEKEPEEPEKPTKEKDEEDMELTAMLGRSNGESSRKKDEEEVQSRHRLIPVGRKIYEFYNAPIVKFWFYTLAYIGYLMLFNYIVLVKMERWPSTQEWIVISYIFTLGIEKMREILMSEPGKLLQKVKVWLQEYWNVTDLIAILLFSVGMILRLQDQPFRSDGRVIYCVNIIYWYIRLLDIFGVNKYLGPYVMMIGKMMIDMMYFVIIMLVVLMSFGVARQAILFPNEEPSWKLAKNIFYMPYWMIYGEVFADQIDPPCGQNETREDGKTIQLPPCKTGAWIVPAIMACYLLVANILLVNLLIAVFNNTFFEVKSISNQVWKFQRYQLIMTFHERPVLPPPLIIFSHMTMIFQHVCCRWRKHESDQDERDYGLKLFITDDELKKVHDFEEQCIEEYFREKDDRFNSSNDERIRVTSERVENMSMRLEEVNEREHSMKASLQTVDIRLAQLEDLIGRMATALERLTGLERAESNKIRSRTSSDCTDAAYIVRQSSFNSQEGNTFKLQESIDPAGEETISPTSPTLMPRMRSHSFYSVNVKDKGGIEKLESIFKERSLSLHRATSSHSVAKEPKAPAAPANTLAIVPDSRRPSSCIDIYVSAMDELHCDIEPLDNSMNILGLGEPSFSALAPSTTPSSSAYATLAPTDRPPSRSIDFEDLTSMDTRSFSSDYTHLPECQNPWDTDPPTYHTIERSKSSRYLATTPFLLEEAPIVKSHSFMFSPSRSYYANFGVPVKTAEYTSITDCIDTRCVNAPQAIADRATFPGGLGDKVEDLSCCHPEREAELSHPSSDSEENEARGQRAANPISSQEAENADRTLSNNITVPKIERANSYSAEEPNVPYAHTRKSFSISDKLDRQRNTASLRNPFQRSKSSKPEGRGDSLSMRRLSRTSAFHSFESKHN

Structure (SMILES) | IC50
Cc1sc2ccc(OCC3CC3)cc2c1C(=O)N[C@@H](CO)C(N)=O [Cpd 050, (2S)-2-{[5-(cyclopropylmethoxy)-2-methyl-1-benzothiophen-3-yl]formamido}-3-hydroxypropanamide] | < 1000 nM
Cc1sc2ccc(OCc3ccccc3)cc2c1C(=O)NCC(C)(C)N1CCOCC1 [Cpd 098, 5-(benzyloxy)-2-methyl-N-[2-methyl-2-(morpholin-4-yl)propyl]-1-benzothiophene-3-carboxamide] | 1000 to 20000 nM
CCOC(=O)c1c(C)sc2ccc(OC)cc12 [Cpd 110, ethyl 5-methoxy-2-methyl-1-benzothiophene-3-carboxylate] | > 20000 nM
O=C(NC1CCNC1=O)c1c(C(F)F)sc2ccc(OCc3ccccc3)cc12 (stereo not shown) [Cpd 146, 5-(benzyloxy)-2-(difluoromethyl)-N-(2-oxopyrrolidin-3-yl)-1-benzothiophene-3-carboxamide] | < 1000 nM
Cc1sc2ccc(OCC3COC3)cc2c1C(=O)NC(C)(CO)C(N)=O (single isomer, unassigned) [Cpd 068 - En1, 3-hydroxy-2-methyl-2-({2-methyl-5-[(oxetan-3-yl)methoxy]-1-benzothiophen-3-yl}formamido)propanamide] | > 20000 nM
Cc1sc2ccc(OCc3ccccc3)cc2c1C(=O)N[C@H](C)C(N)=O [Cpd 001, (2R)-2-{[5-(benzyloxy)-2-methyl-1-benzothiophen-3-yl]formamido}propanamide] | < 1000 nM
CN1CCC(NC(=O)c2c(C(F)F)sc3ccc(OCc4ccccc4)cc23)CC1 [Cpd 128, 5-(benzyloxy)-2-(difluoromethyl)-N-(1-methylpiperidin-4-yl)-1-benzothiophene-3-carboxamide] | 1000 to 20000 nM
Cc1sc2ccc(OCC3COC3)cc2c1C(=O)NC(C)(CO)C(N)=O (single isomer, unassigned) [Cpd 068 - En2, 3-hydroxy-2-methyl-2-({2-methyl-5-[(oxetan-3-yl)methoxy]-1-benzothiophen-3-yl}formamido)propanamide] | 1000 to 20000 nM
COc1ncccc1COc1ccc2sc(C)c(C(=O)NC(C)(C)C(N)=O)c2c1 [Cpd 141, 2-({5-[(2-methoxypyridin-3-yl)methoxy]-2-methyl-1-benzothiophen-3-yl}formamido)-2-methylpropanamide] | < 1000 nM
Cc1sc2ccc(OCc3ccccc3F)cc2c1C(=O)N[C@@H](C)C(N)=O [Cpd 007, (2S)-2-({5-[(2-fluorophenyl)methoxy]-2-methyl-1-benzothiophen-3-yl}formamido)propanamide] | < 1000 nM
CNC(=O)C(C)(CO)NC(=O)c1c(C)sc2ccc(OCc3cnc(C)s3)cc12 (single isomer, unassigned) [Cpd 132 - En1, 3-hydroxy-N,2-dimethyl-2-({2-methyl-5-[(2-methyl-1,3-thiazol-5-yl)methoxy]-1-benzothiophen-3-yl}formamido)propanamide] | < 1000 nM
O=C1CCC(CNC(=O)c2c(C(F)F)sc3ccc(OCc4ccccc4)cc23)N1 (stereo not shown) [Cpd 148, 5-(benzyloxy)-2-(difluoromethyl)-N-[(5-oxopyrrolidin-2-yl)methyl]-1-benzothiophene-3-carboxamide] | > 20000 nM
CN(C)C1(CNC(=O)c2c(C(F)F)sc3ccc(OCc4ccccc4)cc23)CCCC1 [Cpd 112, 5-(benzyloxy)-2-(difluoromethyl)-N-{[1-(dimethylamino)cyclopentyl]methyl}-1-benzothiophene-3-carboxamide] | 1000 to 20000 nM
Cc1sc2ccc(OCc3ccccc3)cc2c1C(=O)O [Cpd 108, 5-(benzyloxy)-2-methyl-1-benzothiophene-3-carboxylic acid] | < 1000 nM
O=C(NCc1cccc(O)n1)c1c(C(F)F)sc2ccc(OCc3ccccc3)cc12 [Cpd 151, 5-(benzyloxy)-2-(difluoromethyl)-N-[(6-hydroxypyridin-2-yl)methyl]-1-benzothiophene-3-carboxamide] | > 20000 nM
Cc1sc2ccc(OCc3ccccc3)cc2c1C(=O)NCC1(N(C)C)CCCC1 [Cpd 111, 5-(benzyloxy)-N-{[1-(dimethylamino)cyclopentyl]methyl}-2-methyl-1-benzothiophene-3-carboxamide] | < 1000 nM
Cc1sc2ccc(OCc3cccnc3C(F)(F)F)cc2c1C(=O)NCc1cccc(O)n1 [Cpd 105, N-[(6-hydroxypyridin-2-yl)methyl]-2-methyl-5-{[2-(trifluoromethyl)pyridin-3-yl]methoxy}-1-benzothiophene-3-carboxamide] | < 1000 nM
Cc1sc2ccc(OCc3cccnc3C(F)(F)F)cc2c1C(=O)NCCN1CCOC1=O [Cpd 107, 2-methyl-N-[2-(2-oxo-1,3-oxazolidin-3-yl)ethyl]-5-{[2-(trifluoromethyl)pyridin-3-yl]methoxy}-1-benzothiophene-3-carboxamide] | 1000 to 20000 nM
CC(C)(CNC(=O)c1c(C(F)F)sc2ccc(OCc3ccccc3)cc12)N1CCOCC1 [Cpd 013, 5-(benzyloxy)-2-(difluoromethyl)-N-[2-methyl-2-(morpholin-4-yl)propyl]-1-benzothiophene-3-carboxamide] | 1000 to 20000 nM
Cc1sc2ccc(OCc3ccccc3)cc2c1C(=O)NC1CCN(C)C1 (stereo not shown) [Cpd 123, 5-(benzyloxy)-2-methyl-N-(1-methylpyrrolidin-3-yl)-1-benzothiophene-3-carboxamide] | < 1000 nM
Cc1sc2ccc(OCc3ccccc3)cc2c1C(=O)NCC1CCC(=O)N1 (stereo not shown) [Cpd 102, 5-(benzyloxy)-2-methyl-N-[(5-oxopyrrolidin-2-yl)methyl]-1-benzothiophene-3-carboxamide] | 1000 to 20000 nM
Cc1sc2ccc(OCc3ccccn3)cc2c1C(=O)N[C@@H](CO)C(N)=O [Cpd 052, (2S)-3-hydroxy-2-({2-methyl-5-[(pyridin-2-yl)methoxy]-1-benzothiophen-3-yl}formamido)propanamide] | < 1000 nM

Second part, the molecule after the results:

IC50 | Structure (SMILES)
> 20000 nM | Cc1sc2ccc(OCC3CCOCC3)cc2c1C(=O)NC(C)(CO)C(N)=O (single isomer, unassigned) [Cpd 067 - En1, 3-hydroxy-2-methyl-2-({2-methyl-5-[(oxan-4-yl)methoxy]-1-benzothiophen-3-yl}formamido)propanamide]
< 1000 nM | Cc1ncsc1COc1ccc2sc(C)c(C(=O)N[C@H](C)C(N)=O)c2c1 [Cpd 006, (2R)-2-({2-methyl-5-[(4-methyl-1,3-thiazol-5-yl)methoxy]-1-benzothiophen-3-yl}formamido)propanamide]
> 20000 nM | Cc1sc2ccc(OCc3cccnc3O)cc2c1C(=O)NC1(C(=O)O)CCOCC1 [Cpd 072, 4-{5-[(2-hydroxypyridin-3-yl)methoxy]-2-methyl-1-benzothiophene-3-amido}oxane-4-carboxylic acid]
< 1000 nM | Cc1ncc(COc2ccc3sc(C)c(C(=O)NC4(C(N)=O)COC4)c3c2)s1 [Cpd 026, 3-{2-methyl-5-[(2-methyl-1,3-thiazol-5-yl)methoxy]-1-benzothiophene-3-amido}oxetane-3-carboxamide]
< 1000 nM | Cc1ncsc1COc1ccc2sc(C)c(C(=O)NC3CC(F)(F)C3)c2c1 [Cpd 039, N-(3,3-difluorocyclobutyl)-2-methyl-5-[(4-methyl-1,3-thiazol-5-yl)methoxy]-1-benzothiophene-3-carboxamide]
< 1000 nM | Cc1ncc(COc2ccc3sc(C)c(C(=O)N[C@@H](CO)C(N)=O)c3c2)s1 [Cpd 016, (2S)-3-hydroxy-2-({2-methyl-5-[(2-methyl-1,3-thiazol-5-yl)methoxy]-1-benzothiophen-3-yl}formamido)propanamide]
< 1000 nM | Cc1ncsc1COc1ccc2sc(C)c(C(=O)NC3(C(N)=O)COC3)c2c1 [Cpd 038, 3-{2-methyl-5-[(4-methyl-1,3-thiazol-5-yl)methoxy]-1-benzothiophene-3-amido}oxetane-3-carboxamide]
1000 to 20000 nM | Cc1ncc(COc2ccc3sc(C)c(C(=O)NC4(CO)CC4)c3c2)s1 [Cpd 022, N-[1-(hydroxymethyl)cyclopropyl]-2-methyl-5-[(2-methyl-1,3-thiazol-5-yl)methoxy]-1-benzothiophene-3-carboxamide]
1000 to 20000 nM | Cc1ncsc1COc1ccc2sc(C)c(C(=O)NCCN3CCOC3=O)c2c1 [Cpd 048, 2-methyl-5-[(4-methyl-1,3-thiazol-5-yl)methoxy]-N-[2-(2-oxo-1,3-oxazolidin-3-yl)ethyl]-1-benzothiophene-3-carboxamide]
< 1000 nM | Cc1ncsc1COc1ccc2sc(C)c(C(=O)NCc3cccc(O)n3)c2c1 [Cpd 047, N-[(6-hydroxypyridin-2-yl)methyl]-2-methyl-5-[(4-methyl-1,3-thiazol-5-yl)methoxy]-1-benzothiophene-3-carboxamide]
< 1000 nM | Cc1ncsc1COc1ccc2sc(C)c(C(=O)NC3(C(N)=O)CCOCC3)c2c1 [Cpd 033, 4-{2-methyl-5-[(4-methyl-1,3-thiazol-5-yl)methoxy]-1-benzothiophene-3-amido}oxane-4-carboxamide]
1000 to 20000 nM | Cc1ncsc1COc1ccc2sc(C)c(C(=O)NC3CCN(C)CC3)c2c1 [Cpd 130, 2-methyl-5-[(4-methyl-1,3-thiazol-5-yl)methoxy]-N-(1-methylpiperidin-4-yl)-1-benzothiophene-3-carboxamide]
< 1000 nM | Cc1sc2ccc(OCc3ccccc3F)cc2c1C(=O)NC1(CO)CCC1 [Cpd 077, 5-[(2-fluorophenyl)methoxy]-N-[1-(hydroxymethyl)cyclobutyl]-2-methyl-1-benzothiophene-3-carboxamide]
< 1000 nM | Cc1ncsc1COc1ccc2sc(C)c(C(=O)NC3CCNCC3(F)F)c2c1 (single isomer, unassigned) [Cpd 042 - En1, N-(3,3-difluoropiperidin-4-yl)-2-methyl-5-[(4-methyl-1,3-thiazol-5-yl)methoxy]-1-benzothiophene-3-carboxamide]
< 1000 nM | Cc1ncsc1COc1ccc2sc(C)c(C(=O)NC3(CO)CC3)c2c1 [Cpd 034, N-[1-(hydroxymethyl)cyclopropyl]-2-methyl-5-[(4-methyl-1,3-thiazol-5-yl)methoxy]-1-benzothiophene-3-carboxamide]
